This note sets out measurements from ChEMBL document CHEMBL5523762, “Discovery of Potent and Selective G9a Degraders for the Treatment of Pancreatic Cancer” (J Med Chem, 2024).

For test [1], the target named is T1, Protein cereblon/Histone-lysine N-methyltransferase EHMT2 (Homo sapiens, UniProt Q96KQ7+Q96SW2). Briefly: PROTAC activity at CRBN/G9a in human PANC-1 cells assessed as induction of G9a degradation at 0.1 uM measured after 24 hrs by Western blot analysis. The class given is cell-based.
Test [2] addresses T2, Histone-lysine N-methyltransferase EHMT2 (Homo sapiens) (UniProt Q96KQ7).
T2 sequence (whole entry): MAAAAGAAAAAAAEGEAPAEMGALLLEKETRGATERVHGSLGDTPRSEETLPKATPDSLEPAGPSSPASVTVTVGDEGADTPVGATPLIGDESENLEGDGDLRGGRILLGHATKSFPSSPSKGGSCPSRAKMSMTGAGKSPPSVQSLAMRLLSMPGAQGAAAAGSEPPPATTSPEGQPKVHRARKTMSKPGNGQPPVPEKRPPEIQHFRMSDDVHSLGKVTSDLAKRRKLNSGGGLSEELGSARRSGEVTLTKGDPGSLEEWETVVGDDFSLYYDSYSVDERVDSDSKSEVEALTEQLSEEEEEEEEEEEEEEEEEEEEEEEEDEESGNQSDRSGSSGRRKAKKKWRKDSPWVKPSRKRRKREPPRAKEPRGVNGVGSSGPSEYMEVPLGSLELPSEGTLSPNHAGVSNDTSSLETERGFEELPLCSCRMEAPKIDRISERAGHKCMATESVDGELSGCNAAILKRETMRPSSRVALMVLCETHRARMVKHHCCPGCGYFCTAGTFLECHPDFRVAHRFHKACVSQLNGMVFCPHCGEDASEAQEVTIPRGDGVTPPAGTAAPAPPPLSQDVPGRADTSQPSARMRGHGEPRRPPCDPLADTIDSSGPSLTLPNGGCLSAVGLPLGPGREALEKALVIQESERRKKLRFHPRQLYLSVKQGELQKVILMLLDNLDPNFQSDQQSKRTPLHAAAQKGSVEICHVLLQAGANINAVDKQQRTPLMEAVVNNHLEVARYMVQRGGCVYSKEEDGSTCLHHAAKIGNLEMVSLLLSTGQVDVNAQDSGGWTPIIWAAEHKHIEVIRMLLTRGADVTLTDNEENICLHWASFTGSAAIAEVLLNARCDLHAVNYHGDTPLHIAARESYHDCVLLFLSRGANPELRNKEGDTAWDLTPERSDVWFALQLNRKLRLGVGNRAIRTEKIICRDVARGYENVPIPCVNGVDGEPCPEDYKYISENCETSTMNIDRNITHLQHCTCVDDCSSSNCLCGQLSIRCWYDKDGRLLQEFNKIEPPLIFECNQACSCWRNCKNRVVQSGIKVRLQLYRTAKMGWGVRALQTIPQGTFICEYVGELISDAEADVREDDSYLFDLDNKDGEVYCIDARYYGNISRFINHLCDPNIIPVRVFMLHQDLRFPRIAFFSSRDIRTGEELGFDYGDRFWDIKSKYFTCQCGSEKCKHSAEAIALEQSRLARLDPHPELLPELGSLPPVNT
Briefly: Inhibition of N-terminal GST tagged human recombinant G9a (785 to 1210 residues) expressed in Escherichia coli using H3(1 to 21)K9me1 and SAM as substrates incubated for 1 hr by HTRF assay.

In test [3] the target is T2, Histone-lysine N-methyltransferase EHMT2 (Homo sapiens). As to the kind of experiment: Induction of G9a degradation in human PANC-1 cells assessed as reduction in G9a protein level at 50 uM measured at 16 hrs by Western blot analysis. The class given is cell-based.
Test [4] deals with T1, Protein cereblon/Histone-lysine N-methyltransferase EHMT2. Briefly: PROTAC activity at CRBN/G9a in human PANC-1 cells assessed as induction of G9a degradation at 0.1 to 1 uM measured after 24 hrs by Western blot analysis. The test is classed as cell-based. Particulars: dose 0.1-1 µM.
The target of test [5] is T2, Histone-lysine N-methyltransferase EHMT2 (Homo sapiens). Briefly: Induction of G9a degradation in human PANC-1 cells assessed as reduction in G9a protein level at 10 uM by Western blot analysis. The class given is cell-based.
The target is the same in test [6]. Briefly: Induction of G9a degradation in human PANC-1 cells assessed as reduction in G9a protein level at 10 uM in presence of 1 uM UNC0638 by Western blot analysis. The test is classed as cell-based.
Test [7] has as its target T1, Protein cereblon/Histone-lysine N-methyltransferase EHMT2. As to the kind of experiment: PROTAC activity at CRBN/G9a in human PANC-1 cells assessed as induction of G9a degradation at 1 uM by Western blot analysis. The class given is cell-based.

Calls of active or inactive are those of the source. The calls are words filed in the database; no cut-off is given here.

T1 sequence (Q96SW2 whole entry partner, one chain of several): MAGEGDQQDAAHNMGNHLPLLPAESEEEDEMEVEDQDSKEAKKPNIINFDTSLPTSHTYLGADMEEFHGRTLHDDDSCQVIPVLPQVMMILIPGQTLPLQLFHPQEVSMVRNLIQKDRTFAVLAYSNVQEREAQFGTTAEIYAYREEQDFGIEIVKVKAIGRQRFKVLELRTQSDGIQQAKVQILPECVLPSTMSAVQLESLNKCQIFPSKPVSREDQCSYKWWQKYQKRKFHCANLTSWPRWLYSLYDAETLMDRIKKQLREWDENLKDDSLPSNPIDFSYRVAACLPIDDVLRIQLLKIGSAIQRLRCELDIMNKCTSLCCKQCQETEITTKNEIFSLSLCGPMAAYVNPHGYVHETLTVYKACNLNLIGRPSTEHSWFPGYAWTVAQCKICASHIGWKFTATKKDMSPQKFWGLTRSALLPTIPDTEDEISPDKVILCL

As for `COc1cc2c(NC3CCN(CCCC(=O)NCCCCCCCCCCNc4cccc5c4C(=O)N(C4CCC(=O)NC4=O)C5=O)CC3)nc(C3CCCCC3)nc2cc1OCCCN1CCCC1` (stereo not given), in test [1], the outcome was inactive. Moreover, in test [2], the inhibition entry is “Active”.

As for `COc1cc2c(NC3CCN(CCCC(=O)NCCOCCOCCNc4cccc5c4C(=O)N(C4CCC(=O)NC4=O)C5=O)CC3)nc(C3CCCCC3)nc2cc1OCCCN1CCCC1` (stereo not given), in test [2], the inhibition entry was “Active”.

Take `N=C(NCCCCCCNC(=N)NC(=N)Nc1ccc(Cl)cc1)NC(=N)Nc1ccc(Cl)cc1`: the outcome in test [3] was Active.

`COc1cc2c(NC3CCN(CCCC(=O)NCCCCCCCCCNc4cccc5c4C(=O)N(C4CCC(=O)NC4=O)C5=O)CC3)nc(C3CCCCC3)nc2cc1OCCCN1CCCC1` (stereo not given): the result in test [1] was inactive. For the same compound, the inhibition entry in test [2] is “Active”.

For the compound `COc1cc2c(NC3CCN(C(=O)CCC(=O)NCCCCCCCCNc4cccc5c4C(=O)N(C4CCC(=O)NC4=O)C5=O)CC3)nc(C3CCCCC3)nc2cc1OCCCN1CCCC1` (stereo not given), the result in test [4] was inactive.

On to `COc1cc2c(NC3CCN(CCCC(=O)NCCCCCCCCNc4ccc5c(c4)C(=O)N(C4CCC(=O)NC4=O)C5=O)CC3)nc(C3CCCCC3)nc2cc1OCCCN1CCCC1` (stereo not given), for which, in test [2], the inhibition result is “Active”.

With `O=C1CCC(N2C(=O)c3ccccc3C2=O)C(=O)N1` (stereo not given), the result in test [5] and in test [6] was inactive.

Regarding `COc1cc2c(NC3CCN(CCCC(=O)NCCCCCCCCNc4cccc5c4C(=O)N(C4CCC(=O)N(C)C4=O)C5=O)CC3)nc(C3CCCCC3)nc2cc1OCCCN1CCCC1` (stereo not given), the outcome in test [7] was inactive.

As to `COc1cc2c(NC3CCN(CCCC(=O)NCCCCCCCNc4cccc5c4C(=O)N(C4CCC(=O)NC4=O)C5=O)CC3)nc(C3CCCCC3)nc2cc1OCCCN1CCCC1` (stereo not given), the result in test [1] was inactive. The inhibition entry in test [2] is “Active”.

With `COc1cc2c(NC3CCN(CCCC(=O)NCCCCCCCCNc4cccc5c4C(=O)N(C4CCC(=O)NC4=O)C5=O)CC3)nc(C3CCCCC3)nc2cc1OCCCN1CCC(F)(F)CC1` (stereo not given), the result in test [7] was inactive.

`COc1cc2c(NC3CCN(CCCC(=O)NCCCCCCCCOc4cccc5c4C(=O)N(C4CCC(=O)NC4=O)C5=O)CC3)nc(C3CCCCC3)nc2cc1OCCCN1CCCC1` (stereo not given): the inhibition entry in test [2] was “Active”.
